Molecules are shown by their SMILES.

For assay [1], the system named is Aβ1-40 secreted from HEK293 cells stably expressing wildtype human APP695 protein (HEK-APPwt cells). Kind of assay: Aβ Cell Based Assay (Aβ1-40 secretion, ELISA). As to conditions: Homo sapiens, HEK293, 6 h, 6 hours incubation, reduction of Aβ1-40 secretion. The procedure: Aβ Cell Based Assay Procedure
In the following assay, the proteolytic activity of BACE in cells exposed to varying concentrations of a compound of interest is measured by observing the amount of Aβ1-40 secreted from HEK293 cells (Human Embryonic Kidney epithelial cell line) stably expressing wildtype human APP695 protein (HEK-APPwt cells).
HEK-APPwt cells were grown in high glucose DMEM (Dulbecco's Modified Eagles Medium SIGMA Cat.# D5796) supplemented with 25 mM HEPES (4-(2-hydroxyethyl)-1-piperazineethanesulfonic acid) (pH 7.4) (Invitrogen Cat.# 15630-114), 0.1 mM NEAA (Non-essential Amino Acids) (BioWhittaker Cat. #13-114E), 10% fetal bovine serum (SIGMA Cat. #F4135) and 250 μg/mL hygromycin (Invitrogen Cat. #10687-010) in T-225 flasks at 37° C. with 5% CO2 and humidity control.
Test compounds were initially prepared in DMSO and diluted with DMEM media containing 2% FBS (Fetal bovine serum). Ten standard compound solutions were prepared having a range of concentrations. The standard compound solutions were used to determine the EC50 of the test compound. The range of concentrations chosen may depend on the compound's predicted potency.
To prepare the cells for the assay, a flask containing HEK-APPwt cells were trypsinized briefly (1 mL trypsin), and once the cells detached, 4 mL of 10% FBS-DMEM was added to the flask. The detached cells were centrifuged at 900 rpm for 5 min to form a pellet.
The HEK-APPwt cell pellet was re-suspended with 10 mL DMEM media containing 2% FBS. 80 μL of the cell suspension was added to each well of a 96-well cell culture plate to give 100×10^4cells/ml. 10 μL of a standard compound solution was added to each well of the 96-well cell culture plate followed by 10 μL of Alamar blue solution. The cells were incubated at 37° C. in a 5% CO2 incubator for 6 hours.
At the end of the incubation, the plates were removed from incubator, and the supernatant was collected. A≈1-40 concentration in the medium was measured by using a commercial Aβ1-X ELISA kit (IBL, Japan Cat. #27729). Briefly, the ELISA plates were coated with an anti-human AO (N)(82E1) mouse IgG monoclonal antibody. A horseradish peroxidase conjugated anti-human Aβ11-28 mouse IgG monoclonal antibody was used for detection. The cell culture supernatant was diluted with EIA buffer +protease inhibitors (kit buffer containing protease inhibitors (1 mL PI/30 mL buffer)). A 100 μL aliquot of the diluted supernatant was added to each well of the ELISA plate and incubated for 6 hrs at 4° C. The ELISA plate was washed 8 times with phosphate buffered saline (PBS) containing 0.05% Tween 20.
A 100 μL of detection antibody was then added and incubated for 1 hour at 4° C. The plate was washed 8 times with PBS buffer containing 0.05% Tween 20 followed by addition of 100 μL of the chromogen tetramethylbenzidine (TMB). The plate was incubated in the dark at room temperature for about 30 min and a stop solution (1N H2SO4) was added.
The intensity of the color developed was measured at 450 nm. The optical density at 450 nm (OD450) is proportional to the concentration of human Aβ1-40 secreted by the cell. As a reference, N-[N-(3,5-difluorophenacetyl-L-alanyl)]-S-phenylglycine t-butyl ester (DAPT, a γ-secretase inhibitor) was used to indicate 100% inhibition of BACE activity. Thus, the assay measures the ability of a compound of interest to reduce Aβ1-40 secretion. For select compounds, compound potency is reported in Table 3 as the EC50 by calculating the percent inhibition at all concentration levels and the data were fit with non-linear curve fitting algorithm using GraphPad Prism.

A further assay concerns the target T1, BACE-1 enzyme (Homo sapiens, UniProt P56817).
T1 construct: purchased R & D Systems 931AS
Kind of assay: BACE Fluorescence Resonance Energy Transfer (FRET) Assay. The class given is biochemical. As to conditions: pH 4-4.5, 30 min pre-incubation, about 1.5 hours reaction. The procedure, abridged:
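Fluorescence (ex 540, em 585 nm) after ~1.5 h room-temperature cleavage of a quenched rhodamine peptide tracks BACE-1 activity. Enzyme and compound first sit 30 min in pH 4-4.5 acetate buffer with CHAPS, Triton X-100, EDTA, 7.5% DMSO. Values given as IC50 or % inhibition.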

T1 sequence (P56817 46-457 limits assumed): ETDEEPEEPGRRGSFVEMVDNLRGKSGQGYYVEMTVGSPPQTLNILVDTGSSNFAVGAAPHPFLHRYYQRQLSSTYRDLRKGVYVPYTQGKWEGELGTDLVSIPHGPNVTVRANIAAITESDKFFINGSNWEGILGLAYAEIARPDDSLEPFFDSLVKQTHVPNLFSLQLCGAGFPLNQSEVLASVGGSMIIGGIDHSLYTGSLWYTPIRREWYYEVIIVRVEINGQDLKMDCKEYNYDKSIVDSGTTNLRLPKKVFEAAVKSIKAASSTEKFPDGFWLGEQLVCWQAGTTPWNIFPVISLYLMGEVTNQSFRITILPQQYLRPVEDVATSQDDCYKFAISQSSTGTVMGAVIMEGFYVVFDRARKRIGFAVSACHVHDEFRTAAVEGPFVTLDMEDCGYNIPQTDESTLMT

In the case of `CCOc1ccc(-c2ccc3[nH]c(NC(=O)c4cn5c(C)cccc5n4)nc3c2)cc1Cl` [Example 106, 5-Methyl-imidazo[1,2-a]pyridine-2-carboxylic acid [5-(3-chloro-4-ethoxy-phenyl)-1H-benzoimidazol-2-yl]-amide], the EC50 – broadly, the concentration that produces a half-maximal response – in assay [1] turned out to be 0.93 µM. For the same compound, half-maximal inhibition against BACE-1 enzyme (IC50) required 0.8 µM.

In assay [1], `CCN(C)Cc1ccc2nc(C(=O)Nc3nc4cc(-c5cccc(C(F)(F)F)c5)ccc4[nH]3)cn2c1` [Example 188, 6-[(Ethyl-methyl-amino)-methyl]-imidazo[1,2-a]pyridine-2-carboxylic acid [5-(3-trifluoromethyl-phenyl)-1H-benzoimidazol-2-yl]-amide] had a concentration for a half-maximal effect (EC50) of 3.6 µM. Also, at BACE-1 enzyme, it took 0.69 µM to reach half-maximal inhibition (IC50).

Consider `Cc1cccc2nc(C(=O)Nc3nc4cc(-c5cc(Cl)ccc5Cl)ccc4[nH]3)cn12` [Example 87, 5-Methyl-imidazo[1,2-a]pyridine-2-carboxylic acid [5-(2,5-dichloro-phenyl)-1H-benzoimidazol-2-yl]-amide], for which the EC50 in assay [1] worked out at 0.73 µM. Further, the IC50 (usually the concentration that inhibits the measured activity by half) against BACE-1 enzyme was determined as 0.22 µM.

In the case of `COc1cc(F)cn2cc(C(=O)Nc3nc4cc(-c5cc(F)cc(Cl)c5)ccc4[nH]3)nc12` [Example 126, 6-Fluoro-8-methoxy-imidazo[1,2-a]pyridine-2-carboxylic acid [5-(3-chloro-5-fluoro-phenyl)-1H-benzoimidazol-2-yl]-amide], in assay [1], it took 1.58 µM to reach a half-maximal effect (EC50). The compound also gave an IC50 against BACE-1 enzyme of 0.22 µM.

`O=C(Nc1nc2cc(-c3cccc(C(F)(F)F)c3)ccc2[nH]1)c1cn2c(CN3CCOCC3)cccc2n1` [Example 165, 5-Morpholin-4-ylmethyl-imidazo[1,2-a]pyridine-2-carboxylic acid [5-(3-trifluoromethyl-phenyl)-1H-benzoimidazol-2-yl]-amide] showed a 50% effective concentration (EC50) in assay [1] of 1.88 µM. On BACE-1 enzyme, the IC50 is 0.42 µM.

In the case of `CC(C)CN(C)Cc1cccn2cc(C(=O)Nc3nc4cc(-c5cccc(C(F)(F)F)c5)ccc4[nH]3)nc12` [Example 199, 8-[(Isobutyl-methyl-amino)-methyl]-imidazo[1,2-a]pyridine-2-carboxylic acid [5-(3-trifluoromethyl-phenyl)-1H-benzoimidazol-2-yl]-amide], the midpoint of the response in assay [1], the EC50, lay at 5.34 µM. In addition, the IC50 against BACE-1 enzyme turned out to be 0.94 µM.

Consider `O=C(Nc1nc2cc(-c3cccc(C(F)(F)F)c3)ccc2[nH]1)c1cn2c(C3=CCNCC3)cccc2n1` [Example 214, 5-(1,2,3,6-tetrahydropyridin-4-yl)-N-{5-[3-(trifluoromethyl)phenyl]-1H-benzimidazol-2-yl}imidazo[1,2-a]pyridine-2-carboxamide], for which the midpoint of the response in assay [1], the EC50, lay at 5.12 µM. Also, it took 0.46 µM to reach half-maximal inhibition against BACE-1 enzyme (IC50).

In assay [1], `COc1ccc(-c2ccc3[nH]c(NC(=O)c4cn5c(N6CCN(C)CC6)cccc5n4)nc3c2)cc1C(F)(F)F` [Example 124, 5-(4-Methyl-piperazin-1-yl)-imidazo[1,2-a]pyridine-2-carboxylic acid [5-(4-methoxy-3-trifluoromethyl-phenyl)-1H-benzoimidazol-2-yl]-amide] came in with an EC50 of 3.13 µM. Also, the IC50 at BACE-1 enzyme turned out to be 0.55 µM.

Turning to `COc1cc(-c2ccc3[nH]c(NC(=O)c4cn5c(C)cccc5n4)nc3c2)cc(C(F)(F)F)c1` [Example 54, 5-Methyl-imidazo[1,2-a]pyridine-2-carboxylic acid [5-(3-methoxy-5-trifluoromethyl-phenyl)-1H-benzoimidazol-2-yl]-amide], in assay [1], the 50% effective concentration (EC50) came out at 0.98 µM. On BACE-1 enzyme, this compound gave a 50% inhibitory concentration (IC50) of 0.39 µM.

For `Cc1cccc2nc(C(=O)Nc3nc4cc(OCc5ccc(C(F)(F)F)cc5)ccc4[nH]3)cn12` [Example 18, 5-Methyl-imidazo[1,2-a]pyridine-2-carboxylic acid [5-(4-trifluoromethyl-benzyloxy)-1H-benzoimidazol-2-yl]-amide], the EC50 in assay [1] came out at 0.42 µM. Besides, the 50% inhibitory concentration (IC50) against BACE-1 enzyme came out at 0.16 µM.

On to `Cc1cccc2nc(C(=O)Nc3nc4cc(-c5ccc(O)c(C(F)(F)F)c5)ccc4[nH]3)cn12` [Example 100, 5-Methyl-imidazo[1,2-a]pyridine-2-carboxylic acid [5-(4-hydroxy-3-trifluoromethyl-phenyl)-1H-benzoimidazol-2-yl]-amide], for which the 50% effective concentration (EC50) in assay [1] came to 2.44 µM. The IC50 on BACE-1 enzyme is 0.46 µM.

For the compound `O=C(Nc1nc2cc(-c3cccc(C(F)(F)F)c3)ccc2[nH]1)c1cn2ccc(CNC(CO)Cc3ccccc3)cc2n1` (centres unmarked) [Example 207, 7-[(1-Benzyl-2-hydroxy-ethylamino)-methyl]-imidazo[1,2-a]pyridine-2-carboxylic acid [5-(3-trifluoromethyl-phenyl)-1H-benzoimidazol-2-yl]-amide], in assay [1], the half-maximal effective concentration (EC50) worked out at 7.65 µM. Half-maximal inhibition against BACE-1 enzyme (IC50) was put at 0.69 µM.

As for `Cc1cccc2nc(C(=O)Nc3nc4cc(-c5ccc(OC(C)C)cc5)ccc4[nH]3)cn12` [Example 97, 5-Methyl-imidazo[1,2-a]pyridine-2-carboxylic acid [5-(4-isopropoxy-phenyl)-1H-benzoimidazol-2-yl]-amide], the midpoint of the response in assay [1], the EC50, lay at 1.78 µM. Besides, half-maximal inhibition on BACE-1 enzyme (IC50) required 0.58 µM.

In the case of `Cc1cccc2nc(C(=O)Nc3nc4ccc(-c5cccc(C(F)(F)F)c5)cc4n3C)cn12` [Example 11, 5-Methyl-imidazo[1,2-a]pyridine-2-carboxylic acid [1-methyl-6-(3-trifluoromethyl-phenyl)-1H-benzoimidazol-2-yl]-amide], the EC50 in assay [1] came to 8.83 µM. Half-maximal inhibition on BACE-1 enzyme (IC50) required 0.55 µM.

Take `O=C(Nc1nc2cc(-c3ccc(F)c(C(F)(F)F)c3)ccc2[nH]1)c1cn2c(F)cccc2n1` [Example 58, 5-Fluoro-imidazo[1,2-a]pyridine-2-carboxylic acid [5-(4-fluoro-3-trifluoromethyl-phenyl)-1H-benzoimidazol-2-yl]-amide]: the EC50 in assay [1] is 0.4 µM. On BACE-1 enzyme, the IC50 was 0.76 µM.

In assay [1], `COCCNCc1cccc2nc(C(=O)Nc3nc4cc(-c5cccc(C(F)(F)F)c5)ccc4[nH]3)cn12` [Example 162, 5-[(2-Methoxy-ethylamino)-methyl]-imidazo[1,2-a]pyridine-2-carboxylic acid [5-(3-trifluoromethyl-phenyl)-1H-benzoimidazol-2-yl]-amide] had a half-maximal effective concentration (EC50) of 0.98 µM. Also, at BACE-1 enzyme, inhibition was half-maximal at 0.23 µM (IC50).

The compound `Cc1cccn2cc(C(=O)Nc3nc4cc(-c5cc(C(F)(F)F)ccc5F)ccc4[nH]3)nc12` [Example 71, 8-Methyl-imidazo[1,2-a]pyridine-2-carboxylic acid [5-(2-fluoro-5-trifluoromethyl-phenyl)-1H-benzoimidazol-2-yl]-amide] came in with an EC50 in assay [1] of 1.56 µM. Further, the IC50 against BACE-1 enzyme is 0.36 µM.

Turning to `Cc1cccn2cc(C(=O)Nc3nc4cc(-c5cccc(C#N)c5)ccc4[nH]3)nc12` [Example 84, 8-Methyl-imidazo[1,2-a]pyridine-2-carboxylic acid [5-(3-cyano-phenyl)-1H-benzoimidazol-2-yl]-amide], in assay [1], the EC50 worked out at 2.9 µM. Further, the IC50 against BACE-1 enzyme amounted to 1.21 µM.

In the case of `CC(C)CNCc1ccc2nc(C(=O)Nc3nc4cc(-c5cccc(C(F)(F)F)c5)ccc4[nH]3)cn2c1` [Example 176, 6-(Isobutylamino-methyl)-imidazo[1,2-a]pyridine-2-carboxylic acid [5-(3-trifluoromethyl-phenyl)-1H-benzoimidazol-2-yl]-amide], the EC50 in assay [1] came to 3.91 µM. Besides, the IC50 at BACE-1 enzyme is 0.37 µM.

For the origin of these results see patent US20120101093A1, “SUBSTITUTED IMIDAZO[1,2-A]PYRIDINE DERIVATIVES, PHARMACEUTICAL COMPOSITIONS, AND METHODS OF USE AS BETA-SECRETASE INHIBITORS” (HIGH POINT PHARMACEUTICALS, LLC, priority 2009, published 2012).
